{
  "source": "patent US20160311791A1",
  "about": "“NOVEL TRICYCLIC CALCIUM SENSING RECEPTOR ANTOGONISTS FOR THE TREATMENT OF OSTEOPOSOSIS” (MERCK SHARP & DOHME CORP., priority 2013, published 2016)",
  "key": {"human CaSR": {"target": "T1, human CaSR (Homo sapiens, UniProt P41180)", "T1 sequence (P41180 20-1078)": "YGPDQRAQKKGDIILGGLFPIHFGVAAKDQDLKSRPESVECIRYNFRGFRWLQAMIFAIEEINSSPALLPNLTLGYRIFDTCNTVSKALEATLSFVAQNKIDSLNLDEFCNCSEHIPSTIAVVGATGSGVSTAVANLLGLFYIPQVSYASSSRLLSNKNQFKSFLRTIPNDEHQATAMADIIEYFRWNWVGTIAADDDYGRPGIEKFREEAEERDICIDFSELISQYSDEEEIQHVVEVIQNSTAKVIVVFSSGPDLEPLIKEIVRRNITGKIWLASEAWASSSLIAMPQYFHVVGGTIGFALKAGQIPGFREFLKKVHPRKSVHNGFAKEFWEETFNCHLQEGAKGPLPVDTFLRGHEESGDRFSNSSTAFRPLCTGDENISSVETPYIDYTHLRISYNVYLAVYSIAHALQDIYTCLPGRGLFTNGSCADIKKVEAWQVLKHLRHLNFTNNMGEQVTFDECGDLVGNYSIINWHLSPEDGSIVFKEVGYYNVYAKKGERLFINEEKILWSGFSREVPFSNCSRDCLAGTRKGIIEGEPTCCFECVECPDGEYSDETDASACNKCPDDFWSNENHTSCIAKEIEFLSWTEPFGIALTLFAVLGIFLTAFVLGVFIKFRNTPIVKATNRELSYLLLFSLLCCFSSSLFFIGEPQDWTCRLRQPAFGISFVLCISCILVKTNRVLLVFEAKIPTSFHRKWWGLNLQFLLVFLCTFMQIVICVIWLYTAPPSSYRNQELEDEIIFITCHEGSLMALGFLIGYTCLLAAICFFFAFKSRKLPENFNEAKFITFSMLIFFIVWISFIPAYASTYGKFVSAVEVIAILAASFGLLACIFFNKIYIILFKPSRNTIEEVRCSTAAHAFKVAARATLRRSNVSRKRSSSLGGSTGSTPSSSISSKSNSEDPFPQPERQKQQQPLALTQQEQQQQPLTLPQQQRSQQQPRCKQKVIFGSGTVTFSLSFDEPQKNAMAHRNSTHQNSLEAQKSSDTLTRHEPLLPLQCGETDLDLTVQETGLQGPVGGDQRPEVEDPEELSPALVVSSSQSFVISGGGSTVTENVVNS", "test": "CaSR binding assay (radioligand, HEK293 membranes)", "design": "expressed in transfected cells; host or cells: HEK293 cell membranes", "settings": "radio-labeled compound used as ligand; read-out: apparent Kd", "procedure": "Procedures for CaSR Binding Assay\nMembrane preparations from HEK293 cells expressing the human CaSR were generated. The cells were cultured and then washed twice with 1×PBS. The cells were dissociated by adding 4 ml pre-warmed 0.25% Trypsin-EDTA, and by incubating the flask at RT for 3 minutes. 10 ml media was dispensed over the cell layer surface, and the cells were harvested into a centrifuge tube. The cells were centrifuged at 200×g for 10 minutes. The cell pellet was suspended in 30 ml of membrane preparation buffer and then homogenized on ice twice at 16000 rpm for 10 seconds. Following homogenization, the membrane was collected by centrifuge at 40000×g for 30 minutes at 4° C., washed twice with 30 ml membrane preparation buffer, and centrifuged again at 40000×g for 10 minutes. The membrane pellet was suspended in 30 ml membrane preparation buffer (50 mM Tris, pH7.0, 10 mM MgCl, Proteinase inhibitor (Roche, REF 04693116001), and then homogenized on ice once at 16000 rpm for 10 seconds. The total protein concentration was measured using a BCA kit. The membrane protein concentration was adjusted to 2.4 mg/ml and then diluted with binding buffer (10 mM HEPES, pH7.4, 130 mM NaCl, 0.4 mM CaCl2, 5 mM MgCl2, 1 mM EGTA, 10 mM glucose, 0.1% BSA) to 0.33 μg/μl. The final amount in the binding assay was 20 μg/well. Test compound was serially diluted manually by using BIOHIT multi-channel pipettor in 100% DMSO (10 point, 3-fold dilution of each compound from 5.0 μM in 100% DMSO). 4 μl of serially diluted compound was manually transferred into a second assay microplate that contained 196 μl of binding assay buffer to create the intermediate dilution plate. For background, 20 μl of assay buffer was added to each control well. […] The binding reaction used a 100 μl reaction volume consisting of 10 μl of test compound, 30 μl of diluted radio-labelled compound, and 60 μl of membrane solution (0.33 μg/μl). The reaction mixture was incubated at room temperature for one hour. The Grade GF/C filter plates were presoaked in 0.3% PEI (protect from light) for 60 minutes at room temperature. The plate was then washed three times with ice-cold wash buffer (25 mM Tris-HCl, PH7.4, 130 mM NaCl, 5 mM MgCl2, 0.4 mM CaCl2, 0.1% BSA) prior to filtration of the binding samples. The binding reaction was terminated by rapid filtration of 100 μl binding mixture through the GF/C plate. Plates were then washed 6 times with ice-cold wash buffer. Filter plates were dried with a hair dryer for 20 minutes. 60 μl/well MICROSCINT 20 (a cocktail for microplates) was added to the bottom of sealed filters, then the filters were sealed at the top with tape. Bound radioactivity was counted in a TOPCOUNT scintillation counter. Exemplary compounds bind in the 1-500 nM range."}, "calcium sensing receptor": {"target": "T2, calcium sensing receptor (Homo sapiens, UniProt P41180)", "T2 sequence (P41180 20-1078)": "T1 sequence (P41180 20-1078)", "test": "Calcium sensing receptor antagonist activity (test not specified)"}},
  "note": "pKd: −log10 of the molar value.",
  "data": [
    {"smiles": "CC(C)(CC1Cc2ccccc2C1)NC[C@@H](O)COc1cc(-c2ccc(C(=O)O)cc2)ccc1F", "note": "[Example 25, (R)-3′-(3-((1-(2,3-dihydro-1H-inden-2-yl)-2-methylpropan-2-yl)amino)-2-hydroxypropoxy)-4′-fluoro-[1,1′-biphenyl]-4-carboxylic acid]", "values": [
      {"measurement": "pKd", "setting": "human CaSR", "result": 6.40},
      {"measurement": "calcium sensing receptor antagonist activity", "setting": "calcium sensing receptor", "result": "shows calcium sensing receptor antagonist activity"}
    ]}
  ]
}
